Laboratory results taken from paper PMC9317316, “Synthesis and Evaluation of Some New 4H-Pyran Derivatives as Antioxidant, Antibacterial and Anti-HCT-116 Cells of CRC, with Molecular Docking, Antiproliferative, Apoptotic and ADME Investigations” (Pharmaceuticals, 2022).
Values joined by “and” are separate entries in the source; they are usually repeats but may differ in a detail not shown here. Equal entries are not always repeated.

Tests used:
[1] = system: caspase-3 gene in HCT-116 cells; experiment: qRT-PCR expression profile of the caspase-3 gene in HCT-116 cells; type: cell-based, human; design: dose or concentration left out as unconfirmed; details: 24 h, as compared to the negative control
Source text: Normally, apoptosis, or programmed cell death, is considered as a safeguard mechanism for managing stress and maintaining tissue homeostasis. It proceeds through a series of well-ordered biochemical cascades of events, which are regulated by a network of proteins. However, due to genetic and epigenetic mutations, deregulation of these proteins occurs, which results in evasion of apoptosis. This oncogenic transformation is a hallmark of human cancer, and it contributes to other tumorigenic events, including uncontrolled growth, accumulation of further genetic mutations, tumor angiogenesis and metastasis and chemotherapeutic resistance. Therefore, reinitiating selective cancer cell death is a fundamental goal in anticancer drug development. Research in cancer biology has provided fundamental insights into the apoptotic pathways and their deregulation in colon cancer. Moreover, it has identified the molecular targets for reinitiating selective tumor cell death, including antiapoptotic Bcl-2 family proteins, apoptosis inhibitors and activators of the TRAIL death receptor signaling pathway, as well as other apoptotic markers, such as caspases. Among the caspases, which play critical roles in apoptosis, are the initiators, including caspases-8 or 9, and the effectors, including caspase-3 and caspase-7. […] Thus, the real-time quantitative PCR analyses of caspase-3-gene levels following treatment with compounds 4d and 4K at a concentration […] for 24 h, were performed to investigate their potential as proapoptotic agents. […]
Total RNA was extracted from each cell culture flask using the RNeasy extraction kit (RNeasy micro kit, cat. no. 74004). […] The amount of extracted RNA was quantified by estimating the absorbance at 260 nm. The purity of the RNA was checked by measuring the ratio of the absorbance at 260 and 280 nm, where a ratio ranging from 1.8 to 2.0 was taken to be pure. […]
Quantitative real-time PCR was carried out with the Thermal Cycler Rotorgene Real-Time System II (Rotorgene, South Korea) with the SYBR kit. […]

[2] = DPPH radical scavenging assay; details: for IC50: 0.03 to 1 mg/mL, 1 h, mean ± SD, triplicate, read-out: IC50 (mM) for DPPH Scavenging Potency
In short: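 Ethanolic DPPH mixed with samples at 0.03 to 1 mg/mL, kept 1 h at room temperature in darkness, then absorbance read at 519 nm against compound-free control. Scavenging percentage computed as (1 − Acompound/Acontrol) × 100; IC50 interpolated from scavenging-versus-concentration plot.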

[3] = system: CDK2 protein in HCT-116 cells; experiment: Quantitative determination of CDK2 concentration in HCT-116 cell lysates (Human CDK2 ELISA Kit); type: cell-based; details: for downregulation of CDK2 protein expression, fold: as compared to the negative control; for concentration of CDK2 in lysate of treated HCT-116 cells: negative control 7.466 ng/mL
Procedure: First, the commercial Human CDK2 ELISA Kit was used to estimate concentrations of the protein in the lysate of HCT-116 cells treated with 4d and 4k. The results were compared with the positive (cells treated with the reference CDK inhibitor, BMS-265246) and negative control experiments.
The in vitro quantitative measurement of concentration of CDK2 in lysates of HCT-116 cells was carried out using a commercial Human CDK2 ELISA Kit (cat. no.: LS-F22176; LifeSpan Biosciences Inc., Seattle, WA, USA) in the presence or absence of the studied compounds (4d and 4k), following the manufacturer’s instructions. Briefly, standards, blanks or samples were first incubated in the corresponding wells for 90 min at 37 °C. Then, biotinylated detection antibody was added to each well and the plate was incubated for 1 h at 37 °C followed by the addition of an Avidin–Horseradish Peroxidase (HRP) conjugate which binds to the biotin. After incubation of the mixture for 30 min at 37 °C, unbound Avidin–HRP conjugate was washed away and a TMB substrate was then added which reacts with the HRP enzyme, resulting in color development. After that, the reaction was stopped using a sulfuric acid stop solution to terminate the color-development reaction and the optical density of each well was measured using a microplate reader at 450 nm. BMS-265246 was used as the standard drug for inhibition of CDK2. All measurements were performed in triplicate.

| SMILES | caspase-3 gene transcription level, fold increase [1] [fold] | IC50 [2] [mM] | DPPH Radical Scavenging Effenciency (%) at 1 mg/mL [2] | downregulation of CDK2 protein expression, fold [3] [fold] | concentration of CDK2 in lysate of treated HCT-116 cells [3] [ng/mL] |
| --- | --- | --- | --- | --- | --- |
| COc1cc(C2C(C#N)=C(N)OC(C)=C2C(=O)OCc2ccccc2)cc(OC)c1OC (stereo not shown) [4d, 6-Amino-5-cyano-2-methyl-4-(3,4,5-trimethoxy-phenyl)-4H-pyran-3-carboxylic acid benzyl ester] | 2.55 | 0.504 ± 0.032 | 65.25% and 65.25 ± 1.77% | 1.9 | 4.634 |
| CC1=C(C(=O)OCc2ccccc2)C(c2ccc(C#N)cc2)C(C#N)=C(N)O1 (stereo not shown) [4k, 6-Amino-5-cyano-4-(4-cyano-phenyl)-2-methyl-4H-pyran-3-carboxylic acid benzyl ester] | 4.62 | 1.05 ± 0.075 | 40.55 ± 2.19% | 1.6 | 3.932 |
